“Also recorded” adds a separate entry of the source.
B1: TGF-β2: Recombinant Human TGF-β2 growth factor (PeproTech) used as stimulus of EMT and RhoA activation (protein, UniProt P61812 303-414, looked up)
Transforming growth factor …: ALDAAYCFRNVQDNCCLRPLYIDFKRDLGWKWIHEPKGYNANFCAGACPYLWSSDTQHSRVLSLYNTINPEASASPCCVSQDLEPLTILYYIGKTPKIEQLSNMIVKSCKCS

Experiments:
C-PVR cells [1] = assay: TGF-β2 induced mesenchymal phenotypic change, phase images; type: cell-based, human; conditions: 1 uM, TGF-β2 10 ng/ml, day 3
Protocol: PVR cells were seeded in well plates for a period of 72 hours. Cells were pre-treated with rho-kinase inhibitors: ripasudil, netarsudil, fasudil and […] (1 uM) for 24 hours, then treated with TGF-β2 […], rho-kinase inhibitors (1 uM), and control with no drug, using triplicates for each condition. Changes in phenotype were examined via phase images at day 3.

C-PVR cells [2] = assay: LDH release cytotoxicity assay (CytoTox 96) of primary PVR cultures; type: cell-based, human; conditions: 48 hours
Protocol: Conditioned media was also collected at 24, and 48 hour time points for each condition, and percentage cell death was quantified by measuring LDH release using the CytoTox 96 Non-Radioactive Cytotoxicity Assay (Promega, Madison, WI, USA). As a positive control, the same number of cells maintained in parallel was lysed by two freeze—thaw cycles; the conditioned media were collected to measure the maximum LDH release. Percentage LDH release was calculated as 100%×(experimental LDH−spontaneous LDH)/(maximal LDH−spontaneous LDH).
PVR cells were cultured using Rho-Kinase inhibitors ripasudil, netarsudil, fasudil, Y-27632 at different concentrations (0.1 μM, 10 μM) and control with no drug. Cell proliferation and cell death LDH levels were measured and quantified at 48 hours.

C-PVR cells [3] = assay: CyQUANT Direct Cell Proliferation Assay of primary PVR cultures; type: cell-based, human; conditions: 48 hours
Protocol: PVR cells were cultured and seeded into 96 well assay plates at 10,000 cells/well in complete growth media. […] Cell proliferation was assessed at 24, and 48 hour time points by CyQUANT® Direct Cell Proliferation Assay (Thermofisher Scientific) and compared to vehicle controls at 24, and 48 hours post treatment. The data was expressed as percent cell inhibition. […] Cell proliferation and cell death LDH levels were measured and quantified at 48 hours.

PVR explants [4] = assay: Ex vivo model of PVR: outgrowth from PVR membrane explants embedded in Matrigel; type: cell-based, human; conditions: for explant outgrowths, inhibition of proliferation and migration: 1 μM, all time points
Protocol: PVR membranes were divided into pieces and embedded in growth factor reduced Matrigel (354,230; BD Biosciences, San Jose, CA) in a 24-well plate and placed at 37° C. for 30 min for the Matrigel to solidify. The specimens were treated with either vehicle or Rho kinase inhibitors, Netarsudil (60 nM), Ripasudil (300 nM), Fasudil (1 uM), and Y27632 (1 uM) in 500 μl in PVR growth media comprising: • 1) Endothelial base medium (EBM2; Lonza-CC-3156)+ • 2) EGM 2 SingleQuot Kit suppl. & Growth factors (Lonza; CC-4176)+ • 3) 10% fetal bovine serum (Atlanta Biologicals)+ • 4) 1% Penicillin/Streptomycin+1% L-Glutamine • *** The total FBS in the media is 12% (2% from SingleQuot+10% additional) Phase contrast images were taken using an EVOS FL imaging system (Life Technologies) and the distance of growth from the embedded tissue was quantified using Image J (National Institutes of Health). PVR membranes were obtained from human donors with PVR grade C undergoing surgery. Membrane fragments placed on a matrigel mount with PVR cell growth media and treated with Rho-Kinase inhibitors ripasudil (1 μM), netarsudil (1 μM), fasudil (1 μM), Y-27632 (1 μM) and control with no drug.

C-PVR cells [5] = assay: Cell migration of PVR cells quantified with phase images; type: cell-based, human; conditions: 1 μM
Protocol: PVR cells cultured using Rho-Kinase inhibitors ripasudil (1 μM), netarsudil (1 μM), fasudil (1 μM), Y-27632 (1 μM) and control with no drug. Cell migration was measured and quantified with phase images at 0, 3, 6, and 12 hours.

PVR explants [6] = assay: Ex vivo model of PVR: outgrowth from PVR membrane explants embedded in Matrigel; type: cell-based; conditions: ex vivo cultured explants of PVR tissue from human subjects
RhoA = RhoA pull down activation assay after TGF-β2 treatment; type: cell-based, human; conditions: C-PVR cells
Protocol: C-PVR cells were cultured and seeded in T-25 flasks at 1 million cells per flask. […] Cells were washed with ice-cold PBS and cell lysates were harvested with a cell scraper. Protein concentration of each time point was measured to ensure equal protein concentration. Using freshly prepared cell lysates, equivalent protein amounts (300-500 ug total protein) were added to 30 ul of rhotekin-RBD beads (Cytoskeleton, Denver, CO) for the […] pulldown assay. Pulldown assay supernatants were quantified using western blot analysis. An anti-RhoA primary antibody (Cytoskeleton, Denver, CO) was added and left overnight at 4° C., After primary antibody intubation, HRP labeled secondary antibody was added, following by addition on HRP detection reagent and intubated at room temperature for 5 minutes,
PVR cells cultured in T-25 flasks and treated with TGF-β2 […] at 80% confluence. […]

[7] = 7 days post embedding in Matrigel
[8] = 14 days post embedding in Matrigel

Molecule	mesenchymal phenotypic change in TGF-β2 treated C-PVR cells (C-PVR cells [1])	cell death detected by LDH analysis (C-PVR cells [2]; all concentrations (10-0.1 μM))	reduction of proliferation in C-PVR cells (C-PVR cells [3]; 0.1 μM (lowest concentration))	reduction of proliferation in C-PVR cells (C-PVR cells [3]; 1 μM (lower concentration))	reduction of proliferation in C-PVR cells (C-PVR cells [3]; 10 μM (highest concentration))	explant outgrowth (PVR explants [4]; [7])	explant outgrowth (PVR explants [4]; [8])	reduction of migration in C-PVR cells (C-PVR cells [5])	explant outgrowths, inhibition of proliferation and migration (PVR explants [4])	numbers of live cells in the explants (PVR explants [6])	cell death detected by LDH analysis (C-PVR cells [2]; low concentrations (0.1 μM))	explant outgrowths, inhibition of proliferation and migration (PVR explants [4]; listed as Y-2762, dihydrochloride)	RhoA activation, increase over control (RhoA; 15 minutes after stimulation)	RhoA activation, increase over control (RhoA; 30 minutes after stimulation)	RhoA activation versus control (RhoA; 60 minutes after stimulation)
C[C@H]1CNCCCN1S(=O)(=O)c1cccc2cncc(F)c12 [ripasudil, 4-fluoro-5-[[(2S)-2-methyl-1,4-diazepan-1-yl]sulfonyl]isoquinoline]	slightly decreased	dose dependent cell death; also recorded: Low levels of cell death	21%	25%	44%	0.8 mm	15 mm	65%							
O=S(=O)(c1cccc2cnccc12)N1CCCNCC1 [fasudil, 1-(5-isoquinolinesulfonyl)-homopiperazine]	slightly decreased	low levels of cell death	24%	39%	20%			40%	no outgrowths and almost complete inhibition of proliferation and migration	significantly reduced					
Cc1ccc(C(=O)OCc2ccc([C@@H](CN)C(=O)Nc3ccc4cnccc4c3)cc2)c(C)c1 [netarsudil]		dose dependent cell death	39%	37%	95%	4.2 mm	37 mm	100%			Low levels of cell death				
C[C@@H](N)[C@H]1CC[C@H](C(=O)Nc2ccncc2)CC1.Cl.Cl [Y-27632, (+)-(R)-trans-4-(1-aminoethyl)-N-(4-pyridyl)cyclohexanecarboxamide dihydrochloride]	slightly decreased									significantly reduced		no outgrowths and almost complete inhibition of proliferation and migration			
B1													1.5	2 fold	slight decrease over control
